Laboratory results taken from paper PMC11005823 (Frontiers in Microbiology, 2024).
Numbering of substitutions follows the chain as printed. “And” between values parts separate entries of the source, which are not always exact repeats. Identical values can stand only once. Like-named read-outs stand apart in the source and are kept apart here.

Columns and labels:
[1] = molecular target: T1, EcoFiu (Fiu_A694C-FM) (Escherichia coli, UniProt P75780, A694C); experiment: biochemical; type: binding
T1 sequence (P75780 32-760 A694C): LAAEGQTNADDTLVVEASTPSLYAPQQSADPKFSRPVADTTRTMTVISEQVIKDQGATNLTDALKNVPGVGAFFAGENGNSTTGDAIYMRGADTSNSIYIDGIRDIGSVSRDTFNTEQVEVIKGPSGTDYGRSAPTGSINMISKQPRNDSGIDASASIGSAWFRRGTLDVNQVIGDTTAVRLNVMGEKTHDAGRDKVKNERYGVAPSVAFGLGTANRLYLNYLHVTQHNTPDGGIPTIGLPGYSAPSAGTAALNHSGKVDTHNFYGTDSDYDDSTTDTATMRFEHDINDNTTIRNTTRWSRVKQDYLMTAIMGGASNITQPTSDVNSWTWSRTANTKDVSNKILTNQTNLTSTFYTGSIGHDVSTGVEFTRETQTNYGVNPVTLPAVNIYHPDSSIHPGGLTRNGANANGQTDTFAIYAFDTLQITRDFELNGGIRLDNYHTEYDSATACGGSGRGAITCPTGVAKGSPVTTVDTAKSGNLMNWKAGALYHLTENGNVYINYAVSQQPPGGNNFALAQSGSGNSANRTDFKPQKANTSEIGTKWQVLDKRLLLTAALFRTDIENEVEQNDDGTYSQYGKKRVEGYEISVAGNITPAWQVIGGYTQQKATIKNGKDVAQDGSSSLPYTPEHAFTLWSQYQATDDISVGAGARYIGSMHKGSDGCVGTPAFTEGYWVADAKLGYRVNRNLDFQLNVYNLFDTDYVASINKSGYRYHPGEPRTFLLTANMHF

[2] = system: OKN359/pFepA Fiu^−, FepA^+, Cir-; details: summary in words
[3] = molecular target: EcoFepA; type: binding, Escherichia coli; details: read-out: apparent KD
[4] = system: OKN359/pFiu Fiu^+, FepA^−, Cir-; details: summary in words; strains exclusively expressing Fiu
[5] = molecular target: T2, AbaPirA (Acinetobacter baumannii, UniProt D0C8V9); details: read-out: apparent KD; AbaPirA sensor; NB = no binding
T2 sequence (D0C8V9 25-754): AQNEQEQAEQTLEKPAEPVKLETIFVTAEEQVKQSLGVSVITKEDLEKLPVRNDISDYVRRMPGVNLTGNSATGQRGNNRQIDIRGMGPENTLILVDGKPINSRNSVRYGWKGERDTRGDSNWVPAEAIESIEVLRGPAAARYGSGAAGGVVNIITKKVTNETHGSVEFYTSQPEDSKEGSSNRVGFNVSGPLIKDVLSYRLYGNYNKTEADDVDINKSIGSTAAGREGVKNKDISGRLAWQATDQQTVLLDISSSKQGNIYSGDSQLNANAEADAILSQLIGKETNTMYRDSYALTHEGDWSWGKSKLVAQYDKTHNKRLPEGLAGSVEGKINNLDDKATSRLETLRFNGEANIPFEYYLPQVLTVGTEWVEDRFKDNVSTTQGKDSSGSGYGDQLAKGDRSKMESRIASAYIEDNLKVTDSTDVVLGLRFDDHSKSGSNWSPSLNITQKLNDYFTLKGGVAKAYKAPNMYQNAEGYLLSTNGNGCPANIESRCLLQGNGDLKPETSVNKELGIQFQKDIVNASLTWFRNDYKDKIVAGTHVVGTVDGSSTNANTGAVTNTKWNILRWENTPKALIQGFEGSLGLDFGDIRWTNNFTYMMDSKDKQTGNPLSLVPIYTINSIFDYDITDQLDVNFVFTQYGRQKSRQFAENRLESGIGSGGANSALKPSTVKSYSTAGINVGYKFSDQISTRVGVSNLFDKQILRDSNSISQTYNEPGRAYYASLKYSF

[6] = system: OKN359/pCir Fiu^−, FepA^−, Cir^+; details: summary in words
[7] = molecular target: EcoCir (Escherichia coli, UniProt P17315); type: binding
[8] = molecular target: T3, AbaPiuA (Acinetobacter baumannii, UniProt D0CAH3); details: read-out: apparent KD; AbaPiuA sensor; NB = no binding
T3 sequence (D0CAH3 29-743): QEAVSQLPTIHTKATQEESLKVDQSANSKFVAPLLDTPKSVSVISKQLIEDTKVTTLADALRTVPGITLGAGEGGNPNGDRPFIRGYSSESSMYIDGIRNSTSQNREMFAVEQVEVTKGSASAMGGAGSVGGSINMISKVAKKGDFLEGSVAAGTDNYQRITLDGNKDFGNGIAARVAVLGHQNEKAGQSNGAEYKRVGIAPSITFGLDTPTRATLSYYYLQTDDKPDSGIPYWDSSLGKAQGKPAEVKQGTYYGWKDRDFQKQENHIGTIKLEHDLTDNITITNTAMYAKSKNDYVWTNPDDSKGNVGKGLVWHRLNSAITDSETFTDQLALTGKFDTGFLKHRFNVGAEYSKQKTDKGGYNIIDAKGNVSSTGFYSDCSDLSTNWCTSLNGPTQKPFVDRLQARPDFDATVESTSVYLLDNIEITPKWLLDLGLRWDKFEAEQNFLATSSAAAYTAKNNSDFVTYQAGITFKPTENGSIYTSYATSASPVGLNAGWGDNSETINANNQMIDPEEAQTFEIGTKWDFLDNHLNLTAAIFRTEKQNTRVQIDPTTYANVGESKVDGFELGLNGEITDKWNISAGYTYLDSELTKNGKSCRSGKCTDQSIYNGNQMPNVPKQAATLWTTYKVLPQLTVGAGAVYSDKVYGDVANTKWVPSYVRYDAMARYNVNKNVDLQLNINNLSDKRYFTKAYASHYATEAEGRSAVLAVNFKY

[9] = molecular target: T4, Fiu N554C-FM (Escherichia coli, UniProt P75780, N554C); type: binding; details: Fiu Cys mutant N554C-FM (positive control); read-out: Affinity: apparent KD
T4 sequence (P75780 32-760 N554C): T1 sequence (P75780 32-760 A694C) with N523C, C663A

[10] = molecular target: T5, AbaBauA (Acinetobacter baumannii, UniProt Q76HJ9); details: AbaBauA sensor; NB = no binding; read-out: apparent KD
T5 sequence (Q76HJ9 23-725): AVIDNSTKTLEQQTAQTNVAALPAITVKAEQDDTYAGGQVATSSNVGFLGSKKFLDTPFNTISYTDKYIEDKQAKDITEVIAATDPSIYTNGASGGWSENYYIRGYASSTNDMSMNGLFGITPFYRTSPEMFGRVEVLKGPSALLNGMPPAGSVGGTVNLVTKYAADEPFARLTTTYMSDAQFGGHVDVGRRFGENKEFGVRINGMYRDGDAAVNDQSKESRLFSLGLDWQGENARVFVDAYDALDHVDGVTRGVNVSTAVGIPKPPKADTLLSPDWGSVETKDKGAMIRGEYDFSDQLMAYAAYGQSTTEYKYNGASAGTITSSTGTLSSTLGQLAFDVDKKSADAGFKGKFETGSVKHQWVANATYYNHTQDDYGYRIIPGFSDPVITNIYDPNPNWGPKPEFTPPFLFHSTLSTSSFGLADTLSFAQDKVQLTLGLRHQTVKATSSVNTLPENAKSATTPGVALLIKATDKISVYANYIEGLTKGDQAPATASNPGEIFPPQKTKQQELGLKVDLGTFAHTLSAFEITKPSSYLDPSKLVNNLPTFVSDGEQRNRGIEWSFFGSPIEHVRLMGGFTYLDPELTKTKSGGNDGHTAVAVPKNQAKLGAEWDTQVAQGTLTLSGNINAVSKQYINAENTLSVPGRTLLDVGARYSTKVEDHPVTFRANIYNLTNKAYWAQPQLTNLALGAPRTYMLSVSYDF

[11] = apparent KD, EcoFiu sensor (Fiu_A694C-FM; FeDHBA with Fiu_N554C-FM), NB = no binding

Chain of EcoCir (P17315 26-663): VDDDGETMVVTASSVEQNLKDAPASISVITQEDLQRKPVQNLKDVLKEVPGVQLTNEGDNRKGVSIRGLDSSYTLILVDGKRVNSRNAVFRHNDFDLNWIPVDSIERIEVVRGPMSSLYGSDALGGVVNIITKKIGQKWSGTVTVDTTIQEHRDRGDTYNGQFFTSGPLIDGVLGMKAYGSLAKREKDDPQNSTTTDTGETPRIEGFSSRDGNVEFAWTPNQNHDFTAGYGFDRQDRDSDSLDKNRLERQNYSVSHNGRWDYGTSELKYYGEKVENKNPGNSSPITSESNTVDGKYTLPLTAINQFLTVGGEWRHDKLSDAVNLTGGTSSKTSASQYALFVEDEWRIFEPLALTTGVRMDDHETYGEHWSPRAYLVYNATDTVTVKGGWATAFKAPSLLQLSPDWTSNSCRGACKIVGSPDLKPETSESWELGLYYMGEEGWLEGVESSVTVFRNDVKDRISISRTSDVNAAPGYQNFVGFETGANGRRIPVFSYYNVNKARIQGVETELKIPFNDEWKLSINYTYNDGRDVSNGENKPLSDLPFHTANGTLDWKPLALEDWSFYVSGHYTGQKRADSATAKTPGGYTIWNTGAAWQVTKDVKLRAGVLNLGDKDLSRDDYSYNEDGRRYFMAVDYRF

Compound: O=C(N[C@@H](CO)C(=O)OC[C@H](NC(=O)c1cccc(O)c1[O-])C(=O)O)c1cccc([O-])c1[O-].[Fe+3] [FeEnt*, Fe(DHBS)2]
- Kd [1, 11]: 0.74 µM

Compound: CC(C)(O/N=C(\C(=O)N[C@@H]1C(=O)N2C(C(=O)[O-])=C(C[N+]3(CCNC(=O)c4ccc([O-])c([O-])c4Cl)CCCC3)CS[C@H]12)c1csc(N)n1)C(=O)O.[Fe+3] [FeFDC]
- susceptibility of cells expressing only FepA [2]: not susceptible

Compound: O=C(N[C@@H](CO)C(=O)O)c1cccc(O)c1O.O=C(N[C@@H](CO)C(=O)O)c1cccc(O)c1O.O=C(N[C@@H](CO)C(=O)O)c1cccc(O)c1O.[Fe+3] [FeDHBS]
- Kd [1, 11]: 0.1 µM and ~0.1 µM
- Kd ([1]; apparent KD, EcoFiu sensor, value marked ^1): 0.09 ± 0.0002 µM
- Kd [3]: 1.6 ± 0.3 µM
- transport by Fiu [4]: did not utilize
- Kd [5]: 161 ± 40 µM
- transport by Cir [6]: weakly
- Kd ([7]; read-out: apparent KD, EcoCir sensor, NB = no binding): 7.2 ± 0.9 µM

Compound: O=C(O)c1cccc(O)c1O.O=C(O)c1cccc(O)c1O.O=C(O)c1cccc(O)c1O.[Fe+3] [FeDHBA]
- transport by FepA [2]: transported
- fluorescence quenching at site A694C-FM ([1]; Fiu_A694C-FM): did not observe significant quenching
- Kd [1, 11]: 0.7 ± 0.1 µM
- Kd [8]: 15 ± 3 µM
- Kd [9]: 0.7 µM
- transport by Fiu [4]: did not utilize
- Kd [5]: 9.4 ± 0.9 µM

Compound: ferric acinetobactin [FeAgn]
- Kd [10]: 2.1 ± 0.4 µM

Compound: CC(C)(O/N=C(\C(=O)N[C@@H]1C(=O)N2C(C(=O)O)=C(C[N+]3(CCNC(=O)c4ccc(O)c(O)c4Cl)CCCC3)CS[C@H]12)c1csc(N)n1)C(=O)O.[Fe+3] [FeFDC]
- Kd [1, 11]: 0.5 µM
- Kd ([1]; read-out: apparent KD, EcoFiu sensor (Fiu_A694C-FM; FeDHBA with Fiu_N554C-FM), NB = no binding): 0.4 ± 0.5 µM
- Kd [5]: 6.2 ± 2.3 µM
- Kd ([7]; Cir): 0.06 µM
- Kd ([7]; read-out: apparent KD, EcoCir sensor, value marked ^1): 0.063 ± 0.006 µM
